Measured values as given in patent publication US10940188B2, “Compounds and methods for treatment and prevention of Flavivirus infection” (priority 2016, dated 2021).
Where a name gives a salt, the structure may show the parent alone. Read-outs that look alike come from different tables or passages of the source.

What was measured:
[1] = system: ZIKV-induced caspase 3/7 activity in human astrocytes; experiment: Caspase 3/7 activity assay, ZIKV-infected human astrocytes; assay type: cell-based; conditions: ZIKV-infected human astrocytes; for IC50: read-out: Caspase 3 (IC50, uM) Astrocyte; for Emax: read-out: Caspase 3 (efficacy, %) Astrocyte
Procedure: (§1) Caspase-Glo 3/7 assay kit (catalog number G8092; Promega, Madison, Wis.) was used to detect caspase 3/7 activity. Reagents were reconstituted as described in the protocol from the manufacturer. Polystyrene plates (384-well and 1536-well; regular tissue culture treated and PDL coated) were purchased from Greiner Bio-One (Monroe, N.C.). Cells were seeded in 384- and 1536-well assay plates and cultured at 37° C. with 5% CO2 for 16 hours. ZIKV solution was added to cells, followed by incubation at 37° C. with 5% CO2 for 6 hours. Caspase-Glo 3/7 was added to each well, unless otherwise specified, and incubated at room temperature for 30 minutes. The luminescence intensity of the assay plates was measured using a ViewLux plate reader (PerkinElmer). Data were normalized by using the cell-containing wells without ZIKV as a negative control (0% induction of caspase 3/7 activity) and wells containing ZIKV infected cells that induced caspase 3/7 activity were used as a positive control (100% induction of caspase 3/7 activity). […]
(§2) Caspase-Glo 3/7 assay kit (Promega) was used to detect caspase 3/7 activity. Reagents were reconstituted as described in the protocol from the manufacturer. Cells were seeded in 384- and 1536-well assay plates and cultured at 37° C. with 5% CO2 for 16 hours. ZIKV solution was added to cells, followed by incubation at 37° C. with 5% CO2 for 6 hours. Caspase-Glo 3/7 was added to each well at a 1:1 ratio, unless otherwise specified, and incubated at room temperature for 30 minutes. The luminescence intensity of the assay plates was measured using a ViewLux plate reader (PerkinElmer). Data was normalized by using the cell-containing wells without ZIKV as a negative (0% induction of caspase 3/7 activity) control and wells containing ZIKV infected cells that induced caspase 3/7 activity were used as a positive control (100% induction of caspase 3/7 activity). […]

[2] = system: ZIKV-induced caspase 3/7 activity in SNB-19 cells; experiment: Caspase 3/7 activity assay, ZIKV-infected SNB-19 cells; assay type: cell-based; conditions: ZIKV-infected SNB-19 cells; for IC50: read-out: Caspase 3 (IC50, uM) SNB-19; for Emax: read-out: Caspase 3 (efficacy, %) SNB-19
Procedure: as §1, §2

[3] = system: ZIKV-induced caspase 3/7 activity in hNPCs; experiment: Caspase 3/7 activity assay, ZIKV-infected hNPCs; assay type: cell-based; conditions: ZIKV-infected hNPCs; for IC50: read-out: Caspase 3 (IC50, uM) NPCs; for Emax: read-out: Caspase 3 (efficacy, %) NPCs
Procedure: Caspase-Glo 3/7 assay kit (catalog number G8092; Promega, Madison, Wis.) was used to detect caspase 3/7 activity. Reagents were reconstituted as described in the protocol from the manufacturer. Polystyrene plates (384-well and 1536-well; regular tissue culture treated and PDL coated) were purchased from Greiner Bio-One (Monroe, N.C.). Cells were seeded in 384- and 1536-well assay plates and cultured at 37° C. with 5% CO2 for 16 hours. ZIKV solution was added to cells, followed by incubation at 37° C. with 5% CO2 for 6 hours. Caspase-Glo 3/7 was added to each well, unless otherwise specified, and incubated at room temperature for 30 minutes. The luminescence intensity of the assay plates was measured using a ViewLux plate reader (PerkinElmer). Data were normalized by using the cell-containing wells without ZIKV as a negative control (0% induction of caspase 3/7 activity) and wells containing ZIKV infected cells that induced caspase 3/7 activity were used as a positive control (100% induction of caspase 3/7 activity).
Human NPCs were seeded onto PDL coated 1536-well assay plates at 250 cells per 3 μl/well and incubated at 37° C. in 5% CO2 for 16 hours. Test compounds dissolved in DMSO were transferred to assay plates at a volume of 23 nl/well by an automated pintool workstation (Wako Automation, San Diego, Calif.). Compounds were incubated with cells for 30 minutes at 37° C. in 5% CO2, immediately followed by the addition of 2 μl/well of ZIKV. Incubation time of compound-treated cells with ZIKV varied based on assay format. Experiments measuring virus-induced caspase 3/7 activity required a 6 hour incubation of ZIKV in the presence compounds at 37° C. in 5% CO2. Following this incubation, 3.5 μl/well of caspase 3/7 reagent mixture was added to assay plates. The plates were incubated for 30 minutes at room temperature, and the resultant luminescence signal was measured using a ViewLux plate reader (Perkin Elmer). Experiments measuring virus-induced cell death required a 72-hour incubation of ZIKV in the presence of compounds at 37° C. in 5% CO2. Following this incubation, 3.5 μl/well of ATP content detection reagent was added to assay plates, incubated for 30 minutes at the room temperature, and the resultant luminescence signal was measured in a ViewLux plate reader.
Caspase-Glo 3/7 assay kit (Promega) was used to detect caspase 3/7 activity. Reagents were reconstituted as described in the protocol from the manufacturer. Cells were seeded in 384- and 1536-well assay plates and cultured at 37° C. with 5% CO2 for 16 hours. ZIKV solution was added to cells, followed by incubation at 37° C. with 5% CO2 for 6 hours. Caspase-Glo 3/7 was added to each well at a 1:1 ratio, unless otherwise specified, and incubated at room temperature for 30 minutes. The luminescence intensity of the assay plates was measured using a ViewLux plate reader (PerkinElmer). Data was normalized by using the cell-containing wells without ZIKV as a negative (0% induction of caspase 3/7 activity) control and wells containing ZIKV infected cells that induced caspase 3/7 activity were used as a positive control (100% induction of caspase 3/7 activity).
Human NPCs were seeded onto PDL coated 1536-well assay plates at 250 cells per 3 μl/well and incubated at 37° C. in 5% CO2 for 16 hours. Test compounds dissolved in DMSO were transferred to assay plates at a volume of 23 nl/well by an automated pintool workstation (Wako Automation, San Diego, Calif.). Compounds were incubated with cells for 30 minutes at 37° C. in 5% CO2, immediately followed by the addition of 2 μl/well of ZIKV. Incubation time of compound-treated cells with ZIKV varied based on assay format. Experiments measuring virus induced caspase 3/7 activity required a 6 hour incubation of ZIKV in the presence compounds at 37° C. in 5% CO2. […]

[4] = system: ZIKV-induced cell death in human astrocytes; experiment: ATP cell viability assay for ZIKV-induced cell death, human astrocytes; assay type: cell-based; conditions: ZIKV-infected human astrocytes; for IC50: read-out: Cell viability (IC50, uM) Astrocyte
[5] = system: ZIKV-induced cell death in SNB-19 cells; experiment: ATP cell viability assay for ZIKV-induced cell death, SNB-19 cells; assay type: cell-based, human; conditions: ZIKV-infected SNB-19 cells; for IC50: read-out: Cell viability (IC50, uM) SNB-19
Procedure: (§3) The reagent was reconstituted and prepared as described by the manufacturer. In order to measure the cell death caused by ZIKV infection, cells were cultured for 16 hours at 37° C. with 5% CO2 in assay plates, followed by the addition of ZIKV solution and incubation at 37° C. with 5% CO2 for 72 hours. ATPlite, the ATP monitoring reagent, was then added to the assay plates and they were incubated for 15 minutes. The resulting luminescence was measured using the ViewLux plate reader (Perkin Elmer). Data were normalized using the wells without cells as a control for 100% cell killing, and cell-containing wells without ZIKV infection were used as full cell viability (0% cell killing). […]
as §3, with “The ATPlite luminescence assay system assay kit (PerkinElmer) was used to determine cell viability. The reagent” for “The reagent”, “by the manufacture. In order” for “by the manufacturer. In order”, “followed by addition of” for “followed by the addition of”, “plates and incubated for” for “plates and they were incubated for”, “Elmer). Data was normalized using” for “Elmer). Data were normalized using”

| SMILES | IC50 ([1]; Astrocyte) [µM] | IC50 ([2]; Homo sapiens) [µM] | IC50 ([3]; Homo sapiens) [µM] | Emax ([1]; Astrocyte) [%] | Emax ([2]; Homo sapiens) [%] | Emax ([3]; Homo sapiens) [%] | Cell viability (efficacy, %) Astrocyte [4] [%] | Cell viability (efficacy, %) SNB-19 [5] [%] | Caspase 3 (efficacy, %) Astrocyte [1] [%] | IC50 [1] [µM] | Caspase 3 (efficacy, %) SNB-19 [2] [%] | IC50 [2] [µM] | Caspase 3 (efficacy, %) NPCs [3] [%] | IC50 [3] [µM] | IC50 [4] [µM] | IC50 ([4]; Astrocyte) [µM] | IC50 ([5]; Homo sapiens) [µM] | IC50 [5] [µM] |
| --- | --- | --- | --- | --- | --- | --- | --- | --- | --- | --- | --- | --- | --- | --- | --- | --- | --- | --- |
| O=c1cc(-c2ccccc2)oc2cc(O)cc(O)c12 [5,7-Dihydroxyflavone] | 15.5 | 8.69 | 5.48 | 55.1 | 42.7 | 51 | 0.0 | 0.0 | – | – | – | – | – | – | – | – | – | – |
| CCC[S+]([O-])c1ccc2[nH]c(NC(=O)OC)nc2c1 (stereo not shown) [Albendazole oxide] | 15.5 | 21.8 | 12.3 | 78.8 | 86 | 88.1 | 0.0 | 0.0 | – | – | – | – | – | – | – | – | – | – |
| Nc1ccc(-c2ccc3ccccc3n2)cc1 [BF-170 hydrochloride] | – | – | – | – | – | – | 65.8 | 0.0 | 118 | 4.61 | 104 | 6.15 | 92.7 | 4.11 | 6.15 | – | – | – |
| O=c1cc(-c2ccccc2)oc2cc(O)c(O)c(O)c12 [Baicalein] | – | 29.1 | 18.4 | 0 | 50.6 | 57.5 | 0.0 | 0.0 | – | – | – | – | – | – | – | – | – | – |
| CCC(CC)CC1(C(=O)Nc2ccccc2SC(=O)C(C)C)CCCCC1 [Dalcetrapib] | – | – | 35.5 | 0 | 50.2 | 50.2 | 45.7 | 110 | – | – | – | – | – | – | – | 47.3 | 35.5 | – |
| O=c1c2ccccc2[se]n1-c1ccccc1 [Ebselen] | 8.2 | 17.3 | 8.2 | 93.8 | 117 | 109 | 0.0 | 0.0 | – | – | – | – | – | – | – | – | – | – |
| CC(/C=C1\SC(=S)N(CC(=O)O)C1=O)=C\c1ccccc1 [Epalrestat] | 19.5 | 20.6 | 15.5 | 93.3 | 79.2 | 72.1 | 0.0 | 82.1 | – | – | – | – | – | – | – | – | 5.48 | – |
| CN(C)c1ccc(N=NS(=O)(=O)[O-])cc1.[Na+] [Fenaminosulf] | – | – | – | – | – | – | 0.0 | 36.7 | 58.5 | 35.5 | 0.0 | – | 0.0 | – | – | – | – | 15.8 |
| O=c1c(-c2ccc(O)cc2)coc2cc(O[C@@H]3O[C@H](CO)[C@@H](O)[C@H](O)[C@H]3O)cc(O)c12 [Genistin] | 25.9 | 23.1 | 17.3 | 60.2 | 58.1 | 58.6 | 0.0 | 0.0 | – | – | – | – | – | – | – | – | – | – |

Continued, in another order:

| IC50 ([1]; Astrocyte) [µM] | IC50 ([2]; Homo sapiens) [µM] | IC50 ([3]; Homo sapiens) [µM] | SMILES | Emax ([1]; Astrocyte) [%] | Emax ([2]; Homo sapiens) [%] | Emax ([3]; Homo sapiens) [%] | Cell viability (efficacy, %) Astrocyte [4] [%] | Cell viability (efficacy, %) SNB-19 [5] [%] | Caspase 3 (efficacy, %) Astrocyte [1] [%] | IC50 [1] [µM] | Caspase 3 (efficacy, %) SNB-19 [2] [%] | IC50 [2] [µM] | Caspase 3 (efficacy, %) NPCs [3] [%] | IC50 [3] [µM] | IC50 [4] [µM] | IC50 ([4]; Astrocyte) [µM] | IC50 ([5]; Homo sapiens) [µM] | IC50 [5] [µM] |
| --- | --- | --- | --- | --- | --- | --- | --- | --- | --- | --- | --- | --- | --- | --- | --- | --- | --- | --- |
| 2.31 | 2.91 | 3.88 | Cc1nc(-c2ccc(OCC(C)C)c(C#N)c2)sc1C(=O)O [Febuxostat] | 84.8 | 104 | 83.2 | 0.0 | 68.4 | – | – | – | – | – | – | – | – | 3.66 | – |
| 14.6 | 12.3 | 10.9 | COc1ccc(-c2coc3cc(O)ccc3c2=O)cc1 [Formononetin] | 94.7 | 104 | 88.3 | 0.0 | 0.0 | – | – | – | – | – | – | – | – | – | – |
| 16.4 | 17.3 | 10.9 | COc1ccc([C@@H]2CC(=O)c3c(O)cc(O)cc3O2)cc1O [Hesperetin] | 72.7 | 86 | 79.6 | 0.0 | 0.0 | – | – | – | – | – | – | – | – | – | – |
| 12.3 | 17.3 | 10.9 | COc1cc2nc(N3CCN(C(=O)C4CCCO4)CC3)nc(N)c2cc1OC (stereo not shown) [Terazosin hydrochloride] | 88.9 | 77.3 | 84.4 | – | – | – | – | – | – | – | – | – | – | – | – |
